Legend:
[1] = target: Recombinant human Cbl-b (aa 36-427) (Homo sapiens, UniProt Q13191); experiment: Cbl-b Biochemical Assay (TR-FRET); settings: read-out: TR-FRET hCbl-b IC50
[2] = tested on: Jurkat (clone E6-1) cells with NFAT luciferase reporter; experiment: Jurkat reporter assay (NFAT Luciferase); format: cell-based; settings: Homo sapiens; Jurkat NFAT luciferase reporter cells, anti-CD3 stimulation, 6 hr; read-out: Jurkat NFAT EC50
[3] = target: T1, Recombinant human c-Cbl (aa 47-435) (Homo sapiens, UniProt P22681); experiment: c-Cbl Biochemical Assay (TR-FRET); settings: hc-Cbl Biochemical Assay (TR-FRET); read-out: TR-FRET hcCbl IC50
T1 sequence (P22681 47-435): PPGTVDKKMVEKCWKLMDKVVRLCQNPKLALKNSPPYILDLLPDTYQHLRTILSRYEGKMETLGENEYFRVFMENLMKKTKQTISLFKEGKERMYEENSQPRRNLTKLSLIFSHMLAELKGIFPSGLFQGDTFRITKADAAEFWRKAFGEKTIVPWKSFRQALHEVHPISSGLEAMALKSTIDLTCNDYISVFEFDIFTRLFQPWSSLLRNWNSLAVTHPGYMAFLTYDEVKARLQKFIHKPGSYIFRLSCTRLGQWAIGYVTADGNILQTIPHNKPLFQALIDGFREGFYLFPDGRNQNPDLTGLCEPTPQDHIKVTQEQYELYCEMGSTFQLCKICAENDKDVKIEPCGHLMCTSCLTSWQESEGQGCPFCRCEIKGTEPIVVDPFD

Recombinant human Cbl-b (aa 36-427), sequence (Q13191 36-427): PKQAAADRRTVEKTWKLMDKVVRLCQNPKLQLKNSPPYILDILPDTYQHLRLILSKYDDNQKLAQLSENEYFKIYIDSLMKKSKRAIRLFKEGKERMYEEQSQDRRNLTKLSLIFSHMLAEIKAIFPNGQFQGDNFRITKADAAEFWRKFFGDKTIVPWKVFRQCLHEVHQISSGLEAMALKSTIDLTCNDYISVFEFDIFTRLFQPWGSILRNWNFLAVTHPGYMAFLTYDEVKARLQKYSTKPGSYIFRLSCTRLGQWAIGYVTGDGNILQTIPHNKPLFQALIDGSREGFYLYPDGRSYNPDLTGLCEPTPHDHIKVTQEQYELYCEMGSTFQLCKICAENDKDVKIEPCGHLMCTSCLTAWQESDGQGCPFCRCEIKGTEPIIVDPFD

SMILES: Cn1cnnc1-c1cc(F)ccc1-c1cccc(-c2nc3cc(CN[C@@H]4CCCC[C@@H]4O)cc(C(F)(F)F)c3o2)c1 [DF-2, (1S,2R)-2-(((2-(4′-Fluoro-2′-(4-methyl-4H-1,2,4-triazol-3-yl)-[1,1′-biphenyl]-3-yl)-7-(trifluoromethyl)benzo[d]oxazol-5-yl)methyl)amino)cyclohexan-1-ol]
- IC50 [1]: < 200 nM
- EC50 [2]: < 200 nM
- IC50 [3]: < 200 nM

SMILES: Cn1cnnc1-c1cc(F)ccc1-c1cccc(-c2nc3ccc(CN[C@@H]4CCC[C@@H]4O)cn3n2)c1 [GK-5, (1S,2R)-2-(((2-(4′-Fluoro-2′-(4-methyl-4H-1,2,4-triazol-3-yl)-[1,1′-biphenyl]-3-yl)-[1,2,4]triazolo[1,5-a]pyridin-6-yl)methyl)amino)cyclopentan-1-ol, Formic Acid]
- IC50 [1]: < 200 nM
- EC50 [2]: 1000 to 10000 nM
- IC50 [3]: 200 to 1000 nM

SMILES: Cn1cnnc1-c1cc(F)ccc1-c1cccc(-c2nc3cc([C@H](CO)N4CCC4)cc(C(F)(F)F)c3o2)c1 (single isomer, unassigned) [DO-6]
- IC50 [1]: < 200 nM
- EC50 [2]: 1000 to 10000 nM
- IC50 [3]: 200 to 1000 nM

SMILES: Cn1cnnc1-c1cc(F)ccc1-c1cccc(-c2nc3cc(CNCC4(O)CCC4)cc(C4CC4)c3o2)c1 [JG-1, 1-((((7-Cyclopropyl-2-(4′-fluoro-2′-(4-methyl-4H-1,2,4-triazol-3-yl)-[1,1′-biphenyl]-3-yl)benzo[d]oxazol-5-yl)methyl)amino)methyl)cyclobutan-1-ol]
- IC50 [1]: < 200 nM
- EC50 [2]: < 200 nM
- IC50 [3]: < 200 nM

SMILES: Cn1cnnc1-c1cc(F)ccc1-c1cccc(-c2nc3cc(CN[C@@H]4CCC[C@H]4O)cc(C(F)(F)F)c3[nH]2)c1 [BK-2, (1R,2R)-2-(((2-(4′-Fluoro-2′-(4-methyl-4H-1,2,4-triazol-3-yl)-[1,1′-biphenyl]-3-yl)-7-(trifluoromethyl)-1H-benzo[d]imidazol-5-yl)methyl)amino)cyclopentan-1-ol]
- IC50 [1]: < 200 nM
- EC50 [2]: 1000 to 10000 nM
- IC50 [3]: 1000 to 10000 nM

SMILES: C[C@@H]1CN(Cc2cc(C(F)(F)F)c3[nH]c(-c4cccc(-c5ccc(F)cc5-c5nncn5C)c4)nc3c2)CCO1 [BL-2, (R)-4-((2-(4′-Fluoro-2′-(4-methyl-4H-1,2,4-triazol-3-yl)-[1,1′-biphenyl]-3-yl)-7-(trifluoromethyl)-1H-benzo[d]imidazol-5-yl)methyl)-2-methylmorpholine]
- IC50 [1]: < 200 nM
- EC50 [2]: 1000 to 10000 nM
- IC50 [3]: 1000 to 10000 nM

SMILES: Cn1cnnc1-c1cc(F)ccc1-c1cccc(-c2nc3cc(CNC4CC4)cc(C(F)(F)F)c3o2)c1 [HO-2, N-((2-(4′-Fluoro-2′-(4-methyl-4H-1,2,4-triazol-3-yl)-[1,1′-biphenyl]-3-yl)-7-(trifluoromethyl)benzo[d]oxazol-5-yl)methyl)cyclopropanamine]
- IC50 [1]: < 200 nM
- EC50 [2]: < 200 nM
- IC50 [3]: < 200 nM

SMILES: Cc1c(F)c(CN[C@@H]2CCC[C@@H]2O)cc2nc(-c3cc(-c4ccc(F)cc4-c4nncn4C)cc(C4CC4)n3)oc12 [AGQ-2, (1S,2R)-2-{[(2-{6-Cyclopropyl-4-[4-fluoro-2-(4-methyl-1,2,4-triazol-3-yl)phenyl]pyridin-2-yl}-6-fluoro-7-methyl-1,3-benzoxazol-5-yl)methyl]amino}cyclopentan-1-ol]
- IC50 [1]: < 200 nM
- EC50 [2]: < 200 nM
- IC50 [3]: < 200 nM

SMILES: Cn1cnnc1-c1cc(F)ccc1-c1cc(-c2nc3cc(CNCC4(O)CCC4)cc(C(F)(F)F)c3o2)nc(C2CC2)c1 [ADR-1, 1-((((2-(6-Cyclopropyl-4-(4-fluoro-2-(4-methyl-4H-1,2,4-triazol-3-yl)phenyl)pyridin-2-yl)-7-(trifluoromethyl)benzo[d]oxazol-5-yl)methyl)amino)methyl)cyclobutan-1-ol]
- IC50 [1]: < 200 nM
- EC50 [2]: < 200 nM
- IC50 [3]: < 200 nM

SMILES: Cn1cnnc1-c1cc(F)ccc1-c1cccc(-c2nc3cc(CN[C@H]4CC[C@@H]4O)cc(C(F)(F)F)c3o2)c1 (single isomer, unassigned) [ADG-1]
- IC50 [1]: < 200 nM
- EC50 [2]: < 200 nM
- IC50 [3]: < 200 nM

SMILES: Cn1cnnc1-c1cc(F)ccc1-c1cccc(-c2nc3cc(CN4CCC5(CC4)CC5)cc(C(F)(F)F)c3o2)c1 [AG-2, 5-((6-Azaspiro[2.5]octan-6-yl)methyl)-2-(4′-fluoro-2′-(4-methyl-4H-1,2,4-triazol-3-yl)-[1,1′-biphenyl]-3-yl)-7-(trifluoromethyl)benzo[d]oxazole]
- IC50 [1]: < 200 nM
- EC50 [2]: 1000 to 10000 nM
- IC50 [3]: 1000 to 10000 nM

SMILES: COc1cc(CNCC2COC2)cc2nc(-c3cccc(-c4ccc(F)cc4-c4nncn4C)c3)oc12 [GZ-1, 1-(2-(4′-Fluoro-2′-(4-methyl-4H-1,2,4-triazol-3-yl)-[1,1′-biphenyl]-3-yl)-7-methoxybenzo[d]oxazol-5-yl)-N-(oxetan-3-ylmethyl)methanamine]
- IC50 [1]: < 200 nM
- EC50 [2]: 200 to 1000 nM
- IC50 [3]: 200 to 1000 nM

SMILES: Cn1cnnc1-c1cc(F)ccc1-c1cccc(-c2cn3ccc(CN[C@@H]4CCC[C@@H]4O)cc3n2)c1 [GO-2, (1S,2R)-2-(((2-(4′-Fluoro-2′-(4-methyl-4H-1,2,4-triazol-3-yl)-[1,1′-biphenyl]-3-yl)imidazo[1,2-a]pyridin-7-yl)methyl)amino)cyclopentan-1-ol]
- IC50 [1]: < 200 nM
- EC50 [2]: 200 to 1000 nM
- IC50 [3]: < 200 nM

SMILES: Cn1cnnc1-c1cc(F)ccc1-c1cc(-c2nc3cc(CN[C@@H]4CCC[C@@H]4O)cc(C(F)(F)F)c3o2)cc(C2CC2)c1 [ACZ-8, (1S,2R)-2-[({2-[5-Cyclopropyl-4′-fluoro-2′-(4-methyl-1,2,4-triazol-3-yl)-[1,1′-biphenyl]-3-yl]-7-(trifluoromethyl)-1,3-benzoxazol-5-yl}methyl)amino]cyclopentan-1-ol]
- IC50 [1]: < 200 nM
- EC50 [2]: < 200 nM
- IC50 [3]: < 200 nM

SMILES: COc1cc(CN[C@@H]2CCC[C@@]2(C)O)cc2nc(-c3cccc(-c4ccc(F)cc4-c4nncn4C)c3)oc12 [GJ-2, (1R,2R)-2-(((2-(4′-fluoro-2′-(4-methyl-4H-1,2,4-triazol-3-yl)-[1,1′-biphenyl]-3-yl)-7-methoxybenzo[d]oxazol-5-yl)methyl)amino)-1-methylcyclopentan-1-ol, Formic Acid]
- IC50 [1]: 200 to 1000 nM
- EC50 [2]: 1000 to 10000 nM
- IC50 [3]: 200 to 1000 nM

SMILES: COCCNCc1ccc2oc(-c3cc(-c4ccc(Cl)cc4-c4nncn4C)cc(C4CC4)n3)nc2c1 [AEM-1]
- IC50 [1]: < 200 nM
- EC50 [2]: < 200 nM
- IC50 [3]: < 200 nM

SMILES: Cc1cc(CNCC(C)(C)O)cc2nc(-c3cccc(-c4ccc(F)cc4-c4nncn4C)c3)oc12 [IK-1, 1-(((2-(4′-Fluoro-2′-(4-methyl-4H-1,2,4-triazol-3-yl)-[1,1′-biphenyl]-3-yl)-7-methylbenzo[d]oxazol-5-yl)methyl)amino)-2-methylpropan-2-ol]
- IC50 [1]: < 200 nM
- EC50 [2]: < 200 nM
- IC50 [3]: < 200 nM

SMILES: COc1cc(CNCC2CCCC2)cc2nc(-c3cccc(-c4ccc(F)cc4-c4nncn4C)c3)oc12 [FN-1, 1-Cyclopentyl-N-((2-(4′-fluoro-2′-(4-methyl-4H-1,2,4-triazol-3-yl)-[1,1′-biphenyl]-3-yl)-7-methoxybenzo[d]oxazol-5-yl)methyl)methanamine]
- IC50 [1]: < 200 nM
- EC50 [2]: < 200 nM
- IC50 [3]: < 200 nM

SMILES: COCCNCc1cc(C2CC2)c2oc(-c3cccc(-c4ccc(F)cc4-c4nncn4C)c3)nc2c1 [JH-1, N-((7-Cyclopropyl-2-(4′-fluoro-2′-(4-methyl-4H-1,2,4-triazol-3-yl)-[1,1′-biphenyl]-3-yl)benzo[d]oxazol-5-yl)methyl)-2-methoxyethan-1-amine]
- IC50 [1]: < 200 nM
- EC50 [2]: < 200 nM
- IC50 [3]: < 200 nM

SMILES: Cn1cnnc1-c1cc(F)ccc1-c1cc(-c2nc3cc(CO)ccc3o2)cc(C2CC2)c1 [AEP-2, {2-[5-cyclopropyl-4′-fluoro-2′-(4-methyl-1,2,4-triazol-3-yl)-[1,1′-biphenyl]-3-yl]-1,3-benzoxazol-5-yl}methanol]
- IC50 [1]: 200 to 1000 nM
- EC50 [2]: 1000 to 10000 nM
- IC50 [3]: 200 to 1000 nM

SMILES: C[C@@H]1CCC[C@@H](NCc2cc(C(F)(F)F)c3oc(-c4cccc(-c5ccc(F)cc5-c5nncn5C)c4)nc3c2)C1 (racemic) [FV-3, rac-(1R,3R)—N-((2-(4′-fluoro-2′-(4-methyl-4H-1,2,4-triazol-3-yl)-[1,1′-biphenyl]-3-yl)-7-(trifluoromethyl)benzo[d]oxazol-5-yl)methyl)-3-methylcyclohexan-1-amine]
- IC50 [1]: < 200 nM
- EC50 [2]: 200 to 1000 nM
- IC50 [3]: < 200 nM

SMILES: Cc1cc(C(C)NCC2CCC2)cc2nc(-c3cc(-c4ccc(F)cc4-c4nncn4C)cc(C4CC4)n3)oc12 (stereo not drawn) [AGU-1, (cyclobutylmethyl)[1-(2-{6-cyclopropyl-4-[4-fluoro-2-(4-methyl-1,2,4-triazol-3-yl)phenyl]pyridin-2-yl}-7-methyl-1,3-benzoxazol-5-yl)ethyl]amine]
- IC50 [1]: < 200 nM
- EC50 [2]: < 200 nM
- IC50 [3]: < 200 nM

SMILES: CCNCc1cc2nc(-c3cc(-c4ccc(F)cc4-c4nncn4C)cc(C4CC4)n3)oc2c(F)c1F [AGZ-2, [(2-{6-cyclopropyl-4-[4-fluoro-2-(4-methyl-1,2,4-triazol-3-yl)phenyl]pyridin-2-yl}-6,7-difluoro-1,3-benzoxazol-5-yl)methyl](ethyl)amine]
- IC50 [1]: < 200 nM
- EC50 [2]: 200 to 1000 nM
- IC50 [3]: 200 to 1000 nM

From patent publication US20250163038A1, “CBL-B MODULATORS AND USES THEREOF” (Nimbus Clio, Inc., priority 2021, published 2025)
